# Results reported in patent US20190183939A1, “CELL THERAPY USING MIDBRAIN-TYPE NEURAL STEM CELLS TREATED WITH VITAMIN C” (INDUSTRY-UNIVERSITY COOPERATION FOUNDATION HANYANG …, priority 2017, published 2019).
# Tests used:
# [1] = tested on: Foxa2 and Lmx1a promoters; test: DIP-qPCR and ChIP-qPCR on Foxa2 and Lmx1a promoters; format: cell-based, rat; conditions: Quercetin 10 μM, 3 hours prior to VC treatment
# Excerpt: (§1) Foxa2 and Nurr1 binding sites were identified using the Jaspar database (http://jaspar.genereg.net/) using an 80% score threshold. Predicted Foxa2 and Nurr1 binding sites were coupled with phylogenetic footprinting to eliminate spurious predictions with specified position weight matrix (PWM) settings, as described in the following reference. [Sandelin, A., and Wasserman, W. W. (2004). Constrained binding site diversity within families of transcription factors enhances pattern discovery bioinformatics. Journal of molecular biology 338, 207-215] (Table 2). ChIP and DIP assays were carried out as described in the following reference. [Prolonged membrane depolarization enhances midbrain dopamine neuron differentiation via epigenetic histone modifications. Stem Cells 29, 1861-1873]. Briefly, chromatin or genomic DNA was sheared to an average of 200-500 bp in length using a sonication Bioruptor (BMS, Seoul, Korea) and immunoprecipitated using the antibodies listed in Table 1. Immunoprecipitated DNA fragments were collected using magnetic beads (Invitrogen), purified, and subjected to real-time PCR using the primers listed in Table 3. The comparative cycle threshold method was used to quantify the results. Data were normalized to the input DNA.
# [2] = tested on: Nurr1 and TH promoters; test: DIP-qPCR and ChIP-qPCR on Nurr1 and TH promoters; format: cell-based, rat; conditions: Quercetin 10 μM, 3 hours prior to VC treatment
# Excerpt: as §1
smiles,measurement,setting,value
O=c1c(O)c(-c2ccc(O)c(O)c2)oc2cc(O)cc(O)c12 [quercetin],effect on VC-mediated changes to 5mC/5hmC and H3K27m3/H3K9m3 on Foxa2 and Lmx1a genes,[1],abolished
same,effect on VC-induced epigenetic changes on Nurr1 and Th promoter,[2],abolished
